Values of other authors, collected in patent publication US20040139488A1, “Compositions and methods for enhancing disease resistance in fish” (priority 2002, published 2004).

Key:
E. ictaluri = details: synthesized, HPLC-purified peptide, in vitro
Aeromonas salmonicida = details: synthesized, HPLC-purified peptide, in vitro

Substance: cecropin B: mature cecropin B from Hyalophora cecropia (SEQ ID NO:19), synthesized peptide purified by high-pressure liquid chromatography (KWKVFKKIEKMGRNIRNGIVKAGPAIAVLGEAKALG; listed as Hyalophora cecropia)
- bactericidal activity against E. ictaluri (E. ictaluri): possess the predicted bactericidal activity
- bactericidal activity against Aeromonas salmonicida (Aeromonas salmonicida): possess the predicted bactericidal activity
